The values below come from patent publication US8148373B2, “Compounds” (AstraZeneca AB, priority 2008, dated 2012).

The target in test [1] is T1, Adrenergic β2 (H292 cells) (Homo sapiens, UniProt P07550).
T1 construct: endogenous in cells; host or cells: H292 cells
The test is described as follows: Adrenergic β2 Mediated cAMP Production, single concentration 1 μM. The conditions noted are these: NCI-H292, 1 μM compound, percentage of the maximum response generated by 1E-07M formoterol, read-out: β2 (% effect at 1 μM). The format is cell-based. How it is done: The following experimental procedure was used to measure the beta-2% effect at 1 μM for the compounds of Examples 116-263. Adrenergic β2 Mediated cAMP Production Cell Preparation
H292 cells are grown in 225 cm2 flasks incubator at 37° C., 5% CO2 in RPMI medium containing 10% (v/v) FBS (foetal bovine serum) and 2 mM L-glutamine.
Compounds were prepared by an initial first dilution into DMSO to give 1 mM stock concentration. This was followed by a 1 in 10 dilution of the stock concentration (10 μl stock compound+90 μl DMSO) to give 0.1 mM compound.
A compound addition plate was prepared by making a further 1 in 25 dilution in assay buffer (HBSS solution containing 10 mM HEPES pH7.4 and 5 mM glucose) containing 4% dimethylsulfoxide. The final compound concentration in assay is 1 μM.
Adherent H292 cells are removed from tissue culture flasks by treatment with Accutase™ cell detachment solution for 15 minutes. Flasks are incubated for 15 minutes in a humidified incubator at 37° C., 5% CO2. Detached cells are re-suspended in RPMI media (containing 10% (v/v) FBS and 2 mM L-glutamine) at 0.1×10^6 cells per mL. 10000 cells in 100 μL are added to each well of a tissue-culture-treated 96-well plate and the cells incubated overnight in a humidified incubator at 37° C., 5% CO2. The culture media is removed and cells are washed twice with 100 μL assay buffer and replaced with 50 μL assay buffer (HBSS solution containing 10 mM HEPES pH7.4 and 5 mM glucose). Cells are rested at room temperature for 20 minutes after which time 25 μL of rolipram (1.2 mM made up in assay buffer) is added. Cells are incubated with rolipram for 10 minutes after which time 25 μl test compounds are added and the cells are incubated for 60 minutes at room temperature. The final rolipram concentration in the assay is 300 μM and final vehicle concentration is 1% (v/v) dimethylsulphoxide. The reaction is stopped by removing supernatants, washing once with 100 μL assay buffer and replacing with 50 μL lysis buffer. The cell monolayer is frozen at −80° C. for 30 minutes (or overnight).
AlphaScreen™ cAMP Detection
The concentration of cAMP (cyclic adenosine monophosphate) in the cell lysate is determined using AlphaScreen™ methodology. The frozen cell plate is thawed for 20 minutes on a plate shaker then 10 μL of the cell lysate is transferred to a 96-well white plate. 40 μL of mixed AlphaScreen™ detection beads (containing equal volumes of donor beads (pre-incubated with biotinylated cAMP in the dark for 30 minutes) and acceptor beads is added to each well and the plate incubated at room temperature for 3 hours in the dark. The AlphaScreen™ signal is measured using an EnVision spectrophotometer (Perkin-Elmer Inc.) with the recommended manufacturer's settings. Concentration of cAMP produced per well were calculated with reference to the cAMP standard curve determined in the same experiment and expressed as a percentage of the maximum response generated by 1E-07M formoterol.

Test [2] has as its target T2, human muscarinic acetylcholine M3 receptor (M3-ACh) (Homo sapiens, UniProt P20309).
T2 construct: expressed in transfected cells; host or cells: CHO-K1 (Chinese Hamster Ovary) cell membranes
The experiment in a line: Muscarinic 3 Receptor Binding Assay, % inhibition specific binding at 1 μM. To be noted: 1 μM compound, % inhibition specific [3H]-NMS binding. How it is done: The following experimental procedure was used to determine the M3% inhibition at 1 μM of the compounds of Examples 116-263.
Muscarinic 3 Receptor Binding Assay
The activity (% inhibition specific binding) of compounds -on the M3 receptor is determined by competition binding of [^3H]N-methyl scopolamine (NMS) to CHO-K1 (Chinese Hamster Ovary) cell membranes expressing the human muscarinic acetylcholine M3 receptor (M3-ACh) in a scintillation proximity assay (SPA) format.
SPA beads are precoated with membranes and then incubated at 2 mg of beads per well with 1 μM compound of the invention, [^3H]NMS at 0.1 nM, quarter Kd (experimentally determined dissociation constant) and assay buffer (20 mM HEPES pH 7.4 containing 5 mM MgCl2). The assay is conducted in a final volume of 200 μL, in the presence of 1% (v/v) dimethyl sulphoxide (DMSO). Total binding of [^3H]NMS is determined in the absence of competing compound and non-specific binding of [^3H]NMS is determined in the presence of 1 μM atropine. The plates are incubated for 16 hours at room temperature and then read on Wallac Microbeta™ using a normalised ^3H protocol. The compound activity at 1 defined as % inhibition specific [^3H]-NMS binding, is determined.

T2 sequence (P20309 whole entry): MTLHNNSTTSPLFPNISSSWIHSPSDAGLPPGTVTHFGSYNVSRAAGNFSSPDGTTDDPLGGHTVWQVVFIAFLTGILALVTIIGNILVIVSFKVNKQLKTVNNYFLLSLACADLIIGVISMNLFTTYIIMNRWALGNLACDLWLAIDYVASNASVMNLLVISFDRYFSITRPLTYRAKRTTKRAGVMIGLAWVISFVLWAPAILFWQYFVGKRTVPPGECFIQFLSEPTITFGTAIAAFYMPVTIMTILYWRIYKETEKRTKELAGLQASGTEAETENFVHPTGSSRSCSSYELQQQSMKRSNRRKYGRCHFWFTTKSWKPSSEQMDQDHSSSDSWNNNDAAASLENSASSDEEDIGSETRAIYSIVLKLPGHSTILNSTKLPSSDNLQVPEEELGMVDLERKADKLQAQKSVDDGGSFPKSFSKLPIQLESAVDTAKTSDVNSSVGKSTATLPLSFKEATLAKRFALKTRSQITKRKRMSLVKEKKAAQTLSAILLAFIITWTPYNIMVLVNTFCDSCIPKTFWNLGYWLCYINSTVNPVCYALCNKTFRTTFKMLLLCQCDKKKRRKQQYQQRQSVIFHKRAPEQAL
T1 sequence (P07550 whole entry): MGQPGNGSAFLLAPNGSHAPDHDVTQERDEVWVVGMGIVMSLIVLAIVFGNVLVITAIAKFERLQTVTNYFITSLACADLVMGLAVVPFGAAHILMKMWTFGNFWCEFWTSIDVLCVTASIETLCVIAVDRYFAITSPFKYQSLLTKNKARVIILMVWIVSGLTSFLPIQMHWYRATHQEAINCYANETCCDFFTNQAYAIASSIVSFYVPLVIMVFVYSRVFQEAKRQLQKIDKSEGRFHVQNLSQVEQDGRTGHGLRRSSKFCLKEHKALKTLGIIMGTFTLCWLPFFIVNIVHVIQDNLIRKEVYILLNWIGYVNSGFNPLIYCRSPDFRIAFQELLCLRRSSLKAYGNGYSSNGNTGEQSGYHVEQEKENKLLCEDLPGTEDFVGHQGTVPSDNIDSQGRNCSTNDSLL

The term inhibition denotes the percentage by which the read-out fell short of the control. The low end stands for a response near the control, the high end for a response far below the control. As for `O=C(CCc1nc2ccccc2[nH]1)N1CCOC2(CCN(Cc3cc(F)cc(CCNC[C@H](O)c4ccc(O)c5[nH]c(=O)sc45)c3)CC2)C1` [Example 116, (R)-7-(2-(3-((4-(3-(1H-benzo[d]imidazol-2-yl)propanoyl)-1-oxa-4,9-diazaspiro[5.5]undecan-9-yl)methyl)-5-fluorophenethylamino)-1-hydroxyethyl)-4-hydroxybenzo[d]thiazol-2(3H)-one], the activation at 1 µM in test [1] came to 111%. This molecule returned an inhibition at 1 µM in test [2] of 3%.
For the molecule `COc1ccccc1CC(=O)N1CCOC2(CCN(Cc3cc(F)cc(CCNC[C@H](O)c4ccc(O)c5[nH]c(=O)sc45)c3)CC2)C1` [Example 117, (R)-7-(2-(3-fluoro-5-((4-(2-(2-methoxyphenyl)acetyl)-1-oxa-4,9-diazaspiro[5.5]undecan-9-yl)methyl)phenethylamino)-1-hydroxyethyl)-4-hydroxybenzo[d]thiazol-2(3H)-one], the activation at 1 µM in test [1] was found to be 101%. The molecule also yielded an inhibition at 1 µM in test [2] of 22%.
Regarding `O=C(c1ccc2ccccc2n1)N1CCOC2(CCN(Cc3cc(F)cc(CCNC[C@H](O)c4ccc(O)c5[nH]c(=O)sc45)c3)CC2)C1` [Example 119, (R)-7-(2-(3-fluoro-5-((4-(quinoline-2-carbonyl)-1-oxa-4,9-diazaspiro[5.5]undecan-9-yl)methyl)phenethylamino)-1-hydroxyethyl)-4-hydroxybenzo[d]thiazol-2(3H)-one], in test [1], the activation at 1 µM worked out at 100%. The molecule also registered an inhibition at 1 µM in test [2] of 60%.
On to `O=C(c1cc2ccccc2[nH]1)N1CCOC2(CCN(Cc3cc(F)cc(CCNC[C@H](O)c4ccc(O)c5[nH]c(=O)sc45)c3)CC2)C1` [Example 120, (R)-7-(2-(3-((4-(1H-indole-2-carbonyl)-1-oxa-4,9-diazaspiro[5.5]undecan-9-yl)methyl)-5-fluorophenethylamino)-1-hydroxyethyl)-4-hydroxybenzo[d]thiazol-2(3H)-one], for which, in test [1], the activation at 1 µM worked out at 101%. Moreover, testing at 1 µM in test [2] gave an inhibition of 82%.
Consider `Cc1ccccc1C(=O)N1CCOC2(CCN(Cc3cc(F)cc(CCNC[C@H](O)c4ccc(O)c5[nH]c(=O)sc45)c3)CC2)C1` [Example 121, (R)-7-(2-(3-fluoro-5-((4-(2-methylbenzoyl)-1-oxa-4,9-diazaspiro[5.5]undecan-9-yl)methyl)phenethylamino)-1-hydroxyethyl)-4-hydroxybenzo[d]thiazol-2(3H)-one], for which the activation at 1 µM in test [1] turned out to be 85%. In test [2], this molecule registered an inhibition at 1 µM of 28%.
As for `Cc1cccc(C(=O)N2CCOC3(CCN(Cc4cc(F)cc(CCNC[C@H](O)c5ccc(O)c6[nH]c(=O)sc56)c4)CC3)C2)c1` [Example 122, (R)-7-(2-(3-fluoro-5-((4-(3-methylbenzoyl)-1-oxa-4,9-diazaspiro[5.5]undecan-9-yl)methyl)phenethylamino)-1-hydroxyethyl)-4-hydroxybenzo[d]thiazol-2(3H)-one], the activation at 1 µM in test [1] came to 82%. Moreover, in test [2], the inhibition at 1 µM worked out at 86%.
As to `O=C(Cc1ccc(-c2ccccc2)cc1)N1CCOC2(CCN(Cc3cc(F)cc(CCNC[C@H](O)c4ccc(O)c5[nH]c(=O)sc45)c3)CC2)C1` [Example 123, (R)-7-(2-(3-((4-(2-(biphenyl-4-yl)acetyl)-1-oxa-4,9-diazaspiro[5.5]undecan-9-yl)methyl)-5-fluorophenethylamino)-1-hydroxyethyl)-4-hydroxybenzo[d]thiazol-2(3H)-one], the activation at 1 µM in test [1] was determined as 97%. The same molecule had an inhibition at 1 µM in test [2] of 62%.
Regarding `Cc1ccsc1C(=O)N1CCOC2(CCN(Cc3cc(F)cc(CCNC[C@H](O)c4ccc(O)c5[nH]c(=O)sc45)c3)CC2)C1` [Example 125, (R)-7-(2-(3-fluoro-5-((4-(3-methylthiophene-2-carbonyl)-1-oxa-4,9-diazaspiro[5.5]undecan-9-yl)methyl)phenethylamino)-1-hydroxyethyl)-4-hydroxybenzo[d]thiazol-2(3H)-one], the activation at 1 µM in test [1] stood at 97%. Also, in test [2], testing at 1 µM gave an inhibition of 52%.
In the case of `O=C(Cc1ccsc1)N1CCOC2(CCN(Cc3cc(F)cc(CCNC[C@H](O)c4ccc(O)c5[nH]c(=O)sc45)c3)CC2)C1` [Example 126, (R)-7-(2-(3-fluoro-5-((4-(2-(thiophen-3-yl)acetyl)-1-oxa-4,9-diazaspiro[5.5]undecan-9-yl)methyl)phenethylamino)-1-hydroxyethyl)-4-hydroxybenzo[d]thiazol-2(3H)-one], the activation at 1 µM in test [1] came out at 98%. Further, 1 µM produced 50% inhibition in test [2].
The like results for `Cc1ccoc1C(=O)N1CCOC2(CCN(Cc3cc(F)cc(CCNC[C@H](O)c4ccc(O)c5[nH]c(=O)sc45)c3)CC2)C1` [Example 127, (R)-7-(2-(3-fluoro-5-((4-(3-methylfuran-2-carbonyl)-1-oxa-4,9-diazaspiro[5.5]undecan-9-yl)methyl)phenethylamino)-1-hydroxyethyl)-4-hydroxybenzo[d]thiazol-2(3H)-one] were, in that order, 97% and 78%.
Regarding `O=C(CCc1c[nH]c2ccccc12)N1CCOC2(CCN(Cc3cc(F)cc(CCNC[C@H](O)c4ccc(O)c5[nH]c(=O)sc45)c3)CC2)C1` [Example 128, (R)-7-(2-(3-((4-(3-(1H-indol-3-yl)propanoyl)-1-oxa-4,9-diazaspiro[5.5]undecan-9-yl)methyl)-5-fluorophenethylamino)-1-hydroxyethyl)-4-hydroxybenzo[d]thiazol-2(3H)-one], in test [1], the activation at 1 µM is 112%. In addition, in test [2], the inhibition at 1 µM was found to be 14%.
Take `O=C(N1CCOC2(CCN(Cc3cc(F)cc(CCNC[C@H](O)c4ccc(O)c5[nH]c(=O)sc45)c3)CC2)C1)C1(c2ccccc2)CCCC1` [Example 129, (R)-7-(2-(3-fluoro-5-((4-(1-phenylcyclopentanecarbonyl)-1-oxa-4,9-diazaspiro[5.5]undecan-9-yl)methyl)phenethylamino)-1-hydroxyethyl)-4-hydroxybenzo[d]thiazol-2(3H)-one]: the activation at 1 µM in test [1] was 90%. This molecule yielded an inhibition at 1 µM in test [2] of 20%.
With `Cc1occc1C(=O)N1CCOC2(CCN(Cc3cc(F)cc(CCNC[C@H](O)c4ccc(O)c5[nH]c(=O)sc45)c3)CC2)C1` [Example 131, (R)-7-(2-(3-fluoro-5-((4-(2-methylfuran-3-carbonyl)-1-oxa-4,9-diazaspiro[5.5]undecan-9-yl)methyl)phenethylamino)-1-hydroxyethyl)-4-hydroxybenzo[d]thiazol-2(3H)-one], the activation at 1 µM in test [1] was determined as 95%. In addition, the inhibition at 1 µM in test [2] came to 41%.
Turning to `O=C(c1ccc2ncsc2c1)N1CCOC2(CCN(Cc3cc(F)cc(CCNC[C@H](O)c4ccc(O)c5[nH]c(=O)sc45)c3)CC2)C1` [Example 132, (R)-7-(2-(3-((4-(benzo[d]thiazole-6-carbonyl)-1-oxa-4,9-diazaspiro[5.5]undecan-9-yl)methyl)-5-fluorophenethylamino)-1-hydroxyethyl)-4-hydroxybenzo[d]thiazol-2(3H)-one], the activation at 1 µM in test [1] is 92%. In test [2], this molecule showed an inhibition at 1 µM of 85%.
